Experimental data reported in patent US10517870B2, “Aryl substituted bicycle heteroaryl compounds” (Bristol-Myers Squibb Company, priority 2015, dated 2019).

Assays:
[1] = system: C33A (HPV−) cells; experiment: Cell proliferation/viability assay, C33A cells; assay type: cell-based; conditions: Homo sapiens, C-33-A, 96 h, read-out: C33A (HPV−) Proliferation IC50 (μM)
Experimental: Caski (catalog number CRL-1550), SiHa (catalog number HTB-35), C33A (catalog number HTB-31), Saos-2 (ATCC HTB-85), and Hela (catalog number CCL-2) cells were obtained from the American Type Culture Collection (ATCC). The human cervical carcinoma cell lines Caski. SiHa, Hela and C33A, and the human osteosarcoma cell line Saos-2, and the human keratinocyte cell line HaCaT were cultured in Dulbecco's Modified Eagle Medium (DMEM, Invitrogen catalog number 11965-092) supplemented with 10% fetal bovine serum. The colorectal carcinoma cell line HCT-116 was cultured in Roswell Park Memorial Institute-1640 Medium (Invitrogen catalog number 11875-093) supplemented with 10% FBS. All cells were incubated at 37° C. in a humidified atmosphere with 5% CO2 in air. To establish the SCHPV-18 cell line, one million primary neonatal human foreskin keratinocytes (Invitrogen, catalog no. C-001-5C), cultured in KBM Gold-keratinocvte cell basal medium (Lonza, catalog no. 192060), were electroporated with 5 μg HPV-18 plasmid DNA (ATCC catalog no. 45152D) using the Amaxa Nucleofector II on setting T-007. Cells were co-transfected with 2 μg plasmid pZSGreen1-N1 (Clontech catalog no. 632448) encoding G418 resistance, and cells were selected for four days in 100 μg/ml G418, after which selection was removed. Cells were maintained in culture six months prior to compound testing. Integration of the HPV 18 genome was confirmed by Southern blot. Control cells transfected in parallel with pZSGreen1-N1 alone became senescent four days after selection and the culture could not be expanded. SCHPV-18 cells were maintained in E medium (Fehrmann F, Laimins L A. Human papillomavirus type 31 life cycle: methods for study using tissue culture models. Methods Mol Biol 2005; 292:317-330).
For proliferation assays, cells were plated in white polystyrene 96-well plates (Costar catalog number 3917) for CellTiter Glo viability assays or 96-well special optics plates (Costar cat #3614) for CellTiter Blue viability assays. Cells were plated in the appropriate growth medium without antibiotics. Two hours after cell plating, a 200× compound stock diluted in DMSO was added to a final concentration of 0.5%. Plates were incubated at 37° C., for 4 days and then cell viability was assessed using either CellTiter Blue (Promega catalog number G8081) or CellTiter Glo (Promega catalog number G7572) according to the manufacturer's instructions. For the CellTiter Blue viability assay, data was collected using the SpectraMax Gemini EM (Molecular Devices) with an excitation wavelength of 530 nm and emission wavelength of 590 nm. For the CellTiter Glo viability assay, data was collected using the Envision Mulitlabel Reader (Perkin Elmer catalog number 2104-0010). To calculate IC50 and EC50 values, percent inhibition curves were fit using a four-parameter logistic formula [y=A+[…]], where A and B denote minimal and maximal % inhibition, respectively, C is the IC50 value, D is the Hill slope, and x represents compound concentration.
Table C, below, sets out the results obtained employing various compounds of the invention tested for their effects on proliferation of such cells. Caski or SiHa cells, transformed by HPV 16, Hela cells, transformed by HPV 18, or HPV-negative control cell lines (Saos-2 or C33a) were treated with various compounds. […] Unlike the HPV-negative Saos-2 or C33a cell lines, the HPV-transformed cell lines rely on the presence of HPV for their continued proliferation. Therefore, a comparison of IC50 values from HPV-transformed cell lines with IC50 values obtained from HPV-negative cell lines can be used to test for compound selectivity.

[2] = biological target: T1, PAR4 (Homo sapiens, UniProt Q96RI0); experiment: PAR4 FLIPR assay (calcium mobilization, antagonist activity) in PAR4-expressing HEK293 cells; assay type: cell-based
T1 construct: expressed in transfected cells; host or cells: HEK293 PAR4 Clone 1.2A
T1 sequence (Q96RI0 18-385): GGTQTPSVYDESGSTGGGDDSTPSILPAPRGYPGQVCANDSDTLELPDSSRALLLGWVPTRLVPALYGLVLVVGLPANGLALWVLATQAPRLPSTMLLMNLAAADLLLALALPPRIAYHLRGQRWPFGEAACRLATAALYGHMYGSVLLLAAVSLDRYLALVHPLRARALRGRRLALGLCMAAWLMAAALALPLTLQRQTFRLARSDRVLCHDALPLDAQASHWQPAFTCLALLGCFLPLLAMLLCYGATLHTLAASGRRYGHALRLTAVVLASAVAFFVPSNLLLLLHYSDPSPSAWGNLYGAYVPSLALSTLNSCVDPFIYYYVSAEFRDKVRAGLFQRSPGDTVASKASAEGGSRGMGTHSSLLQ
From the text: The FLIPR assay is an exemplary in vitro assay for measuring the activity of the PAR4 antagonists of the present invention. In this assay, intracellular calcium mobilization is induced in PAR4 expressing cells by a PAR4 agonist and calcium mobilization is monitored.
HEK293 cells stably expressing PAR4 were generated by a standard method of transfection of human PAR4 (F2R23) cDNA expression vector and selected based on PAR4 protein expression or mRNA expression. […] These cells also express endogenous PAR1 and can elicit calcium signal upon stimulation with PAR1 agonist peptide. Therefore, the same cells were also used to determine selectivity against PAR1 and agonist activity for both receptors. Cells from HEK293 PAR4 Clone 1.2A (BMS Arctic ID 383940) were propagated and used for calcium mobilization studies.
FLIPR-based calcium mobilization assay in HEK293 cells was used to measure PAR4 antagonism, agonism, and selectivity against PAR1. The activity of the PAR4 antagonists of the present invention were tested in PAR4 expressing cells by monitoring H-Ala-Phe(4-F)-[…]NH2-induced intracellular calcium mobilization. Counter screens for agonist activity and PAR1 antagonist activity were also performed. Briefly, PAR1/PAR4-expressing HEK293 cells were grown in DMEM (Life Technology, Grand Island, N.Y.) containing 10% heat-inactivated FBS, 1% Penicillin-Streptomycin, 10 μg/mL blasticidin, and 100 μg/mL Zeocin at 37° C. with 5% CO2. Cells were plated overnight prior to the experiment in a black 384-well Purecoat Amine clear bottom plate (Becton Dickinson Biosciences, San Jose, Calif.) at 10,000 cells/well in 30 μL growth medium and incubated in a humidified chamber at 37° C. with 5% CO2 overnight. Prior to compound addition, the cell medium was replaced with 40 μL of IX calcium and magnesium-containing Hank's Balanced Saline Solution (HBSS) (with 20 mM HEPES) and 1:1000 diluted fluorescent calcium indicator (Codex Biosolutions, Gaithersburg, Md.). After a 30 minute incubation period at 37° C., and a further 30 minute incubation and equilibration period at room temperature, 20 μL test compound (diluted in 1×HBSS buffer) was added at various concentrations at 0.17% dimethyl sulfoxide (DMSO) final concentration. Changes in fluorescence intensity were measured using a Functional Drug Screening System (FDSS, Hamamatsu, Japan) to determine agonist activities. The cells were then incubated for 30 minutes at room temperature followed by addition of 20 μL of agonist peptide for antagonist activity measurement. […] Compound potency was derived from 11-point concentration-response curves.

In the case of `COc1ccc(-c2cc(C)cc3nc(OC(F)F)cnc23)cc1` [Example 6, 2-(difluoromethoxy)-5-(4-methoxyphenyl)-7-methylquinoxaline], the IC50 [1] is reported as 44.8 µM and the IC50 [2] is reported as 2.4 µM.
